In ChEMBL document CHEMBL3407493, “Medicinal uses, phytochemistry and pharmacology of family Sterculiaceae: a review” (Eur J Med Chem, 2015) one finds IC50, MIC and LC50 data, which are given here for 22 compounds.

Series [1] is described as follows: Antioxidant activity assessed as inhibition of linoleic acid autooxidation. It is filed as physicochemical.
A short description of series [2]: Antioxidant activity assessed as DPPH radical scavenging activity. It is filed as physicochemical. In general terms: DPPH is a stable violet radical that fades when it is reduced.
The next series has as its system Liver microsome. Nature of the series: Antioxidant activity in rat liver microsomes assessed as inhibition of NADPH-dependent lipid peroxidation. It is filed as functional. (Liver microsomes are a subcellular fraction often used to study metabolism.)
In the next series the test system is SK-MEL-28. The series can be described thus: Cytotoxicity against human SK-MEL-28 cells assessed as growth inhibition. It is filed as functional, cell-based.
Series [3] in a line: Cytotoxicity against human Bel7402 cells assessed as growth inhibition. The class given is functional, cell-based. Conditions: Bel-7402.
The subject of another series is Escherichia coli. The series can be described thus: Antibacterial activity against Escherichia coli ATCC 11103. It is filed as functional.
Series [4] is described as follows: Antibacterial activity against Salmonella setubal ATCC 19196. Conditions: Salmonella enterica. It is filed as functional, Salmonella enterica subsp. enterica serovar Setubal.
A further series relates to Klebsiella pneumoniae. The series can be described thus: Antibacterial activity against Klebsiella pneumoniae ATCC 10031. The class given is functional.
Series [5] is described as follows: Toxicity in Artemia salina Linn. It is filed as organism-based. Conditions: in vivo.

SMILES strings stand for the structures. Converted amounts (≈) assume the structure as drawn.

As usually defined, the IC50 is the concentration that gives 50% inhibition. For `OC[C@H]1O[C@@H](O[C@@H]2[C@@H]3c4c(O)cc(O)cc4O[C@]2(c2ccc(O)c(O)c2)Oc2cc(O)c4c(c23)O[C@H](c2ccc(O)c(O)c2)[C@H](O)[C@H]4c2c(O)cc(O)c3c2O[C@H](c2ccc(O)c(O)c2)[C@H](O)C3)[C@H](O)[C@@H](O)[C@H]1O`, the IC50 turned out to be 2 µg/mL (≈ 1.95 µM) in series [1], 2.4 µg/mL (≈ 2.34 µM) in [2] and 36 µg/mL (≈ 35.1 µM) in the series with Liver microsome.

For `Oc1cc(O)c2c(c1)O[C@H](c1ccc(O)c(O)c1)[C@H](O)[C@H]2c1c(O)cc2c(c1O)C[C@@H](O)[C@@H](c1ccc(O)c(O)c1)O2`, the IC50 in series [1] was 2.3 µg/mL (≈ 3.98 µM); in [2], 2.3 µg/mL (≈ 3.98 µM); in the series on Liver microsome, 12 µg/mL (≈ 20.7 µM).

`Oc1cc(O)c2c(c1)O[C@H](c1ccc(O)c(O)c1)[C@H](O)[C@H]2c1c(O)cc(O)c2c1O[C@H](c1ccc(O)c(O)c1)[C@H](O)[C@H]2c1c(O)cc(O)c2c1O[C@H](c1ccc(O)c(O)c1)[C@H](O)C2` [PROCYANIDIN C1]: the IC50 in [1] came out at 5.3 µg/mL (≈ 6.11 µM); in series [2], 6.2 µg/mL (≈ 7.15 µM); in the series on Liver microsome, 68 µg/mL (≈ 78.5 µM).

`CC1(C)C(=O)[C@@H](O)C[C@@H]2C1=CC[C@@H]1[C@@]2(C)C(=O)C[C@]2(C)[C@@H]([C@@](C)(O)C(=O)CC(O)C(C)(C)O)[C@H](O)C[C@@]12C` (some centres not stated) [CUCURBITACIN G]: the IC50 in the series with SK-MEL-28 is 1.28 µM; in [3], 1.37 µM.

As usually defined, the MIC is the lowest concentration found to suppress growth. Consider `CC(C)CC(C(=O)NC1C(=O)NC(Cc2ccccc2)C(=O)N/C=C\c2ccc(cc2)OC1C(C)C)N(C)C` (configuration not stated), for which the MIC in the series with Escherichia coli was 25 µg/mL (≈ 46.8 µM); in series [4], 50 µg/mL (≈ 93.5 µM); in the series on Klebsiella pneumoniae, 25 µg/mL (≈ 46.8 µM).

For `Oc1cc(O)c2c(c1)O[C@]1(c3ccc(O)c(O)c3)Oc3cc(O)c4c(c3[C@@H]2[C@H]1O[C@@H]1OC[C@@H](O)[C@H](O)[C@H]1O)O[C@H](c1ccc(O)c(O)c1)[C@H](O)[C@H]4c1c(O)cc(O)c2c1O[C@H](c1ccc(O)c(O)c1)[C@H](O)C2`, the IC50 in series [1] was determined as 1.9 µg/mL (≈ 1.91 µM); in series [2], 2.3 µg/mL (≈ 2.31 µM); in the series with Liver microsome, 28 µg/mL (≈ 28.1 µM).

Regarding `Oc1cc(O)c2c(c1)O[C@H](c1ccc(O)c(O)c1)[C@H](O)[C@H]2c1c(O)cc(O)c2c1O[C@H](c1ccc(O)c(O)c1)[C@H](O)[C@H]2c1c(O)cc(O)c2c1O[C@H](c1ccc(O)c(O)c1)[C@H](O)[C@H]2c1c(O)cc(O)c2c1O[C@H](c1ccc(O)c(O)c1)[C@H](O)C2`, the IC50 in series [1] amounted to 2.7 µg/mL (≈ 2.34 µM); in [2] it was 2.1 µg/mL (≈ 1.82 µM); in the series on Liver microsome, 25 µg/mL (≈ 21.6 µM).

Usually LC50 stands for the concentration that kills 50% of the test population. Read a low LC50 as a more lethal substance. Take `COc1cc(C)c2oc(=O)c(C)cc2c1C(C)C`: the LC50 in series [5] turned out to be 24.2 µg/mL (≈ 98.2 µM).

As to `C=C(C)[C@@H]1CC[C@]2(C(=O)O)CC[C@]3(COC(=O)c4ccccc4)[C@H](CC[C@@H]4[C@@]5(C)CC[C@H](OC(C)=O)C(C)(C)[C@@H]5CC[C@]43C)[C@@H]12`, the IC50 in the series on SK-MEL-28 stood at 32 µM.

With `Oc1cc(O)c2c(c1)O[C@H](c1ccc(O)c(O)c1)[C@H](O)C2` [(-)-EPICATECHIN], the IC50 in [1] came to 0.62 µg/mL (≈ 2.14 µM); in series [2] it was 0.62 µg/mL (≈ 2.14 µM); in the series on Liver microsome, 29 µg/mL (≈ 99.9 µM).

For `OC[C@H]1O[C@@H](O[C@H]2[C@H]3c4c(O)cc(O)cc4O[C@]2(c2ccc(O)c(O)c2)Oc2cc(O)c4c(c23)O[C@H](c2ccc(O)c(O)c2)[C@H](O)C4)[C@H](O)[C@@H](O)[C@H]1O`, the IC50 in [1] was 2.5 µg/mL (≈ 3.38 µM); in series [2], 3.9 µg/mL (≈ 5.28 µM); in the series with Liver microsome, 18 µg/mL (≈ 24.4 µM).

The compound `CC1=Cc2c(C(C)C)ccc(C)c2C(=O)C1=O` gave an LC50 in series [5] of 2.08 µg/mL (≈ 9.11 µM).

Consider `CC(C)(O)/C=C/C(=O)[C@](C)(O)[C@H]1[C@H](O)C[C@@]2(C)[C@@H]3CC=C4[C@@H](C[C@H](O)C(=O)C4(C)C)[C@]3(C)C(=O)C[C@]12C` [CUCURBITACIN D], for which the IC50 with SK-MEL-28 amounted to 1.22 µM; in [3] it was 1.41 µM.

Take `O=C(N[C@H](CO)[C@H](O)c1ccc([N+](=O)[O-])cc1)C(Cl)Cl` [CHLORAMPHENICOL]: the minimum inhibitory concentration (MIC) stood at 3.12 µg/mL (≈ 9.66 µM) against Escherichia coli, 3.12 µg/mL (≈ 9.66 µM) in series [4] and 1.56 µg/mL (≈ 4.83 µM) with Klebsiella pneumoniae.

Consider `Oc1cc(O)c2c(c1)O[C@]1(c3ccc(O)c(O)c3)Oc3cc(O)c4c(c3[C@H]2[C@@H]1O[C@@H]1OC[C@@H](O)[C@H](O)[C@H]1O)O[C@H](c1ccc(O)c(O)c1)[C@H](O)C4`, for which the 50% inhibitory concentration (IC50) in series [1] worked out at 2.2 µg/mL (≈ 3.1 µM); in series [2], 3.9 µg/mL (≈ 5.5 µM); with Liver microsome, 21 µg/mL (≈ 29.6 µM).

For the compound `Oc1cc(O)c2c(c1)O[C@H](c1ccc(O)c(O)c1)[C@H](O)[C@H]2c1c(O)cc(O)c2c1O[C@H](c1ccc(O)c(O)c1)[C@H](O)C2` [PROCYANIDIN B2], the figures for the IC50 (in series [2]; with Liver microsome) were 1.4 µg/mL (≈ 2.42 µM) and 12 µg/mL (≈ 20.7 µM), respectively.

As to `CC1=C2OC[C@@H](C)c3c(O)cc(C)c(c32)C(=O)C1=O`, the LC50 in series [5] came to 50.7 µg/mL (≈ 196 µM).

On to `Cc1c(C)c2c(c(C)c1O)CCC(C)(CCCC(C)CCCC(C)CCCC(C)C)O2` (racemic) [alpha-TOCHOPHEROL], for which the IC50 in series [1] was 7.7 µg/mL (≈ 17.9 µM); in series [2] it was 4.6 µg/mL (≈ 10.7 µM); in the series with Liver microsome it was 5.6 µg/mL (≈ 13 µM).

Turning to `CC1=Cc2c(c(C)cc(O)c2C(C)C)C(=O)C1=O` [MANSONONE G], the LC50 in series [5] came to 64.4 µg/mL (≈ 263 µM).

On to `Cc1cc2c(C(C)C)c(O)cc(C)c2oc1=O`, for which the LC50 in series [5] turned out to be 0.61 µg/mL (≈ 2.63 µM).

Consider `Cc1c2c3c(ccc(C)c3oc1=O)C(C)CO2` (configuration not stated), for which the LC50 in series [5] worked out at 188 µg/mL (≈ 816 µM).

Consider `C=C(C)[C@@H]1CC[C@]2(C(=O)O)CC[C@]3(C)[C@H](CC[C@@H]4[C@@]5(C)CC[C@H](OC(=O)/C=C/c6ccc(O)c(O)c6)C(C)(C)[C@@H]5CC[C@]43C)[C@@H]12`, for which the IC50 with SK-MEL-28 turned out to be 81.7 µM.
